Test results taken from patent US20250108038A1 (priority 2023, published 2025).
Where “and” joins values, the source holds several entries; their conditions need not be identical. Equal values may be shown once.

System: Long Evans rats
Assay: Behavioral satiety sequence (BSS)
Type: in vivo, Long Evans rat
Source text: The Behavioural Satiety Sequence (BSS) is a technique used to evaluate physiological satiety. It is based on the expression of a sequence of behaviors including eating, grooming, locomotor activity, followed by resting, which are typically observed in rodents post-ingestion (Halford et al, 1998, Pharmacology Biochemistry and Behaviour. 61(2): 159-168). The BSS is a widely used model for determining the effects of novel pharmaceuticals on food intake and measures of satiety in rodents (Oliveira et al, 2011, Revista de Nutrição. 24(4) 619-628), and to discriminate the cause of reduced food intake following pharmacological manipulation. For example, treatments that may reduce food intake by non-specific mechanisms, such as immobility, malaise, and taste adulteration, will disrupt this sequence (Halford et al, 1998, Pharmacology Biochemistry and Behaviour. 61(2): 159-168).
Specifically, 12 male Long-Evans rats were food-deprived for 22 h with a 2 h feeding period each day. Rats were trained to consume daily food during the 2 h period over 25 days. The testing phase was initiated once the rats consistently consumed 16-18 g of food per day with ≤10% variance in amount of feed consumed. Feeding took place in designated individual boxes in a quiet room separate from the housing room. Continuous remote monitoring via video camera during feeding was used to assess the BSS. Food consumption was measured by weighing the total available food before and after the 2 h feeding window, correcting for spillage. Lorcaserin (1 mg/kg) was included as a reference control (Higgins et al, 2011, Neuropsychopharmacology. 37(5): 1177-1191). Subjects were tested using a repeated-measures, Latin square design with 2-3 days wash-out between treatment cycles.
On scheduled test days, animals were monitored remotely via video camera during the feeding access period. The occurrence of four mutually exclusive behaviors (eating/drinking, grooming, active, rest) were individually scored. Over the 2 h feeding period, behaviors were assessed every 30 seconds. Scores were compiled into 23 5 min timebins (timebin 24 was removed due to early removal of animals) and the frequency of each behavior within each timebin was calculated to determine a temporal frequency of each measure (Rodgers et al, 2010, Pharmacology Biochemistry and Behaviour. 97: 3-14). Percentage time was plotted for each behavioral sequence in each timebin to compare between treatment groups (Higgins et al, 2011, Neuropsychopharmacology. 37(5): 1177-1191).

[1] = Compound I-19 3 mg/kg i.p., raw score per animal
[2] = Compound I-19 3 mg/kg, AVG of 12 animals
[3] = Compound I-19 3 mg/kg, raw score of individual animals LT-1 to LT-12
[4] = Compound I-19 i.p., first dose group after lorcaserin (dose not given), raw score per animal

For `Clc1ccc(C2(OCC3OCCO3)c3ccccc3C3=NCCN32)cc1` (stereo not shown) [Compound I-19], the “BSS scoring R (resting), Time Bin 4 (15-20 TOTAL)” value [1] was 1 (2×) and 0 (10×), the “BSS scoring R (resting), Time Bin 5 (20-25 TOTAL)” value [1] was 0 (10×) and 1 (2×) and the “BSS scoring R (resting), Time Bin 6 (25-30 TOTAL)” value [1] was 0 (9×) and 1 and 2 (2×). The “BSS scoring A (active), Time Bin 13 (60-65 TOTAL), AVG” value [2] was 0.18, the “BSS scoring A (active), Time Bin 14 (65-70 TOTAL), AVG” value [2] was 0.15 and the “BSS scoring A (active), Time Bin 15 (70-75 TOTAL), AVG” value [2] was 0.28. The “BSS scoring A (active), Time Bin 16 (75-80 TOTAL), AVG” value [2] was 0.03, the “BSS scoring A (active), Time Bin 17 (80-85 TOTAL), AVG” value [2] was 0.18 and the “BSS scoring A (active), Time Bin 18 (85-90 TOTAL), AVG” value [2] was 0.12. For the same compound, the “BSS scoring E (eating/drinking), Time Bin 13 (60-65 TOTAL), AVG” value [2] was 0.72, the “BSS scoring E (eating/drinking), Time Bin 14 (65-70 TOTAL), AVG” value [2] was 0.63 and the “BSS scoring E (eating/drinking), Time Bin 15 (70-75 TOTAL), AVG” value [2] was 0.53. For the same compound, the “BSS scoring E (eating/drinking), Time Bin 16 (75-80 TOTAL), AVG” value [2] was 0.71, the “BSS scoring E (eating/drinking), Time Bin 17 (80-85 TOTAL), AVG” value [2] was 0.63 and the “BSS scoring E (eating/drinking), Time Bin 18 (85-90 TOTAL), AVG” value [2] was 0.65. For the same compound, the “BSS scoring G (grooming), Time Bin 13 (60-65 TOTAL), AVG” value [2] was 0.02, the “BSS scoring G (grooming), Time Bin 14 (65-70 TOTAL), AVG” value [2] was 0.02 and the “BSS scoring G (grooming), Time Bin 15 (70-75 TOTAL), AVG” value [2] was 0.06. For the same compound, the “BSS scoring G (grooming), Time Bin 16 (75-80 TOTAL), AVG” value [2] was 0.05, the “BSS scoring G (grooming), Time Bin 17 (80-85 TOTAL), AVG” value [2] was 0.03 and the “BSS scoring G (grooming), Time Bin 18 (85-90 TOTAL), AVG” value [2] was 0.07. For the same compound, the “BSS scoring R (resting), Time Bin 13 (60-65 TOTAL), AVG” value [2] was 0.09, the “BSS scoring R (resting), Time Bin 14 (65-70 TOTAL), AVG” value [2] was 0.21 and the “BSS scoring R (resting), Time Bin 15 (70-75 TOTAL), AVG” value [2] was 0.13. For the same compound, the “BSS scoring R (resting), Time Bin 16 (75-80 TOTAL), AVG” value [2] was 0.22, the “BSS scoring R (resting), Time Bin 17 (80-85 TOTAL), AVG” value [2] was 0.17 and the “BSS scoring R (resting), Time Bin 18 (85-90 TOTAL), AVG” value [2] was 0.17. The “BSS scoring A (active), Time Bin 13 (60-65 TOTAL)” value [3] was 3 and 0 (3×) and 2 (4×) and 1 (2×) and 4 (2×), the “BSS scoring A (active), Time Bin 14 (65-70 TOTAL)” value [3] was 8 and 0 (5×) and 1 (5×) and 5 and the “BSS scoring A (active), Time Bin 15 (70-75 TOTAL)” value [3] was 3 (2×) and 0 (5×) and 5 (3×) and 4 and 9. The “BSS scoring A (active), Time Bin 16 (75-80 TOTAL)” value [3] was 0 (10×) and 1 and 2, the “BSS scoring A (active), Time Bin 17 (80-85 TOTAL)” value [3] was 0 (6×) and 8 and 2 and 3 and 4 (2×) and 1 and the “BSS scoring A (active), Time Bin 18 (85-90 TOTAL)” value [3] was 0 (7×) and 2 and 3 (2×) and 1 and 5. For the same compound, the “BSS scoring E (eating/drinking), Time Bin 13 (60-65 TOTAL)” value [3] was 6 (3×) and 8 (4×) and 7 and 9 and 10 (2×) and 0, the “BSS scoring E (eating/drinking), Time Bin 14 (65-70 TOTAL)” value [3] was 2 (2×) and 8 (2×) and 9 (3×) and 10 and 3 (2×) and 7 and 5 and the “BSS scoring E (eating/drinking), Time Bin 15 (70-75 TOTAL)” value [3] was 7 (3×) and 9 and 8 and 5 (2×) and 0 (3×) and 6 and 10. The “BSS scoring E (eating/drinking), Time Bin 16 (75-80 TOTAL)” value [3] was 10 (4×) and 8 (3×) and 3 and 0 and 2 and 9 and 7, the “BSS scoring E (eating/drinking), Time Bin 17 (80-85 TOTAL)” value [3] was 7 and 2 and 8 and 10 (4×) and 0 (2×) and 3 and 6 and 9 and the “BSS scoring E (eating/drinking), Time Bin 18 (85-90 TOTAL)” value [3] was 10 (4×) and 8 (2×) and 5 (2×) and 0 (2×) and 9 and 3. The “BSS scoring G (grooming), Time Bin 13 (60-65 TOTAL)” value [3] was 1 (2×) and 0 (10×), the “BSS scoring G (grooming), Time Bin 14 (65-70 TOTAL)” value [3] was 0 (11×) and 2 and the “BSS scoring G (grooming), Time Bin 15 (70-75 TOTAL)” value [3] was 0 (8×) and 1 (3×) and 4. The “BSS scoring G (grooming), Time Bin 16 (75-80 TOTAL)” value [3] was 0 (8×) and 1 (3×) and 3, the “BSS scoring G (grooming), Time Bin 17 (80-85 TOTAL)” value [3] was 0 (10×) and 1 and 2 and the “BSS scoring G (grooming), Time Bin 18 (85-90 TOTAL)” value [3] was 0 (8×) and 4 and 1 (2×) and 2. For the same compound, the “BSS scoring R (resting), Time Bin 13 (60-65 TOTAL)” value [3] was 0 (8×) and 2 (2×) and 1 and 6, the “BSS scoring R (resting), Time Bin 14 (65-70 TOTAL)” value [3] was 0 (4×) and 2 (3×) and 1 (2×) and 6 and 7 and 4 and the “BSS scoring R (resting), Time Bin 15 (70-75 TOTAL)” value [3] was 0 (8×) and 2 and 5 (2×) and 3. For the same compound, the “BSS scoring R (resting), Time Bin 16 (75-80 TOTAL)” value [3] was 0 (4×) and 1 (4×) and 3 and 9 and 2 and 8, the “BSS scoring R (resting), Time Bin 17 (80-85 TOTAL)” value [3] was 3 (2×) and 0 (7×) and 1 and 8 and 5 and the “BSS scoring R (resting), Time Bin 18 (85-90 TOTAL)” value [3] was 0 (7×) and 2 (2×) and 6 and 9 and 1. The “effect on the behavioral satiety sequence (BSS)” value (Compound I-19 0.1-3 mg/kg IP, lorcaserin 1 mg/kg SC) was “did not affect the BSS compared to vehicle pretreatment”, the “BSS scoring A (active), Time Bin 7 (30-35 TOTAL)” value [4] was 2 and 0 and the “BSS scoring A (active), Time Bin 8 (35-40 TOTAL)” value [4] was 2 and 0. For the same compound, the “BSS scoring A (active), Time Bin 9 (40-45 TOTAL)” value [4] was 1 and 2, the “BSS scoring A (active), Time Bin 10 (45-50 TOTAL)” value [4] was 1 and the “BSS scoring A (active), Time Bin 11 (50-55 TOTAL)” value [4] was 1 and 0. The “BSS scoring A (active), Time Bin 12 (55-60 TOTAL)” value [4] was 1 and 2, the “BSS scoring E (eating/drinking), Time Bin 7 (30-35 TOTAL)” value [4] was 6 and 9 and the “BSS scoring E (eating/drinking), Time Bin 8 (35-40 TOTAL)” value [4] was 6 and 9. For the same compound, the “BSS scoring E (eating/drinking), Time Bin 9 (40-45 TOTAL)” value [4] was 9 and 6, the “BSS scoring E (eating/drinking), Time Bin 10 (45-50 TOTAL)” value [4] was 7 and the “BSS scoring E (eating/drinking), Time Bin 11 (50-55 TOTAL)” value [4] was 8 and 10. The “BSS scoring E (eating/drinking), Time Bin 12 (55-60 TOTAL)” value [4] was 5 and 8, the “BSS scoring G (grooming), Time Bin 7 (30-35 TOTAL)” value [4] was 0 and 1 and the “BSS scoring G (grooming), Time Bin 8 (35-40 TOTAL)” value [4] was 1. For the same compound, the “BSS scoring G (grooming), Time Bin 9 (40-45 TOTAL)” value [4] was 0 and 1, the “BSS scoring G (grooming), Time Bin 10 (45-50 TOTAL)” value [4] was 1 and the “BSS scoring G (grooming), Time Bin 11 (50-55 TOTAL)” value [4] was 0. The “BSS scoring G (grooming), Time Bin 12 (55-60 TOTAL)” value [4] was 1 and 0, the “BSS scoring R (resting), Time Bin 7 (30-35 TOTAL)” value [4] was 2 and 0 and the “BSS scoring R (resting), Time Bin 8 (35-40 TOTAL)” value [4] was 1 and 0. For the same compound, the “BSS scoring R (resting), Time Bin 9 (40-45 TOTAL)” value [4] was 0 and 1, the “BSS scoring R (resting), Time Bin 10 (45-50 TOTAL)” value [4] was 1 and the “BSS scoring R (resting), Time Bin 11 (50-55 TOTAL)” value [4] was 1 and 0. The “BSS scoring R (resting), Time Bin 12 (55-60 TOTAL)” value [4] was 3 and 0.
